{"source": "paper PMC10982999", "about": "“Structure-Guided Design and Optimization of Covalent VHL-Targeted Sulfonyl Fluoride PROTACs” (Journal of Medicinal Chemistry, 2024)", "key": {"[1]": {"test_system": "BRD4-HiBiT HEK293T cells", "conditions": "18 h, 70-0.01 μM"}, "[2]": {"target": "T1, AR (AR-HiBiT LNCaP cells) (Homo sapiens, UniProt P10275, T878A)", "T1 construct": "host or cells: AR-HiBiT KI LNCaP", "T1 sequence (P10275 1-920 T878A)": "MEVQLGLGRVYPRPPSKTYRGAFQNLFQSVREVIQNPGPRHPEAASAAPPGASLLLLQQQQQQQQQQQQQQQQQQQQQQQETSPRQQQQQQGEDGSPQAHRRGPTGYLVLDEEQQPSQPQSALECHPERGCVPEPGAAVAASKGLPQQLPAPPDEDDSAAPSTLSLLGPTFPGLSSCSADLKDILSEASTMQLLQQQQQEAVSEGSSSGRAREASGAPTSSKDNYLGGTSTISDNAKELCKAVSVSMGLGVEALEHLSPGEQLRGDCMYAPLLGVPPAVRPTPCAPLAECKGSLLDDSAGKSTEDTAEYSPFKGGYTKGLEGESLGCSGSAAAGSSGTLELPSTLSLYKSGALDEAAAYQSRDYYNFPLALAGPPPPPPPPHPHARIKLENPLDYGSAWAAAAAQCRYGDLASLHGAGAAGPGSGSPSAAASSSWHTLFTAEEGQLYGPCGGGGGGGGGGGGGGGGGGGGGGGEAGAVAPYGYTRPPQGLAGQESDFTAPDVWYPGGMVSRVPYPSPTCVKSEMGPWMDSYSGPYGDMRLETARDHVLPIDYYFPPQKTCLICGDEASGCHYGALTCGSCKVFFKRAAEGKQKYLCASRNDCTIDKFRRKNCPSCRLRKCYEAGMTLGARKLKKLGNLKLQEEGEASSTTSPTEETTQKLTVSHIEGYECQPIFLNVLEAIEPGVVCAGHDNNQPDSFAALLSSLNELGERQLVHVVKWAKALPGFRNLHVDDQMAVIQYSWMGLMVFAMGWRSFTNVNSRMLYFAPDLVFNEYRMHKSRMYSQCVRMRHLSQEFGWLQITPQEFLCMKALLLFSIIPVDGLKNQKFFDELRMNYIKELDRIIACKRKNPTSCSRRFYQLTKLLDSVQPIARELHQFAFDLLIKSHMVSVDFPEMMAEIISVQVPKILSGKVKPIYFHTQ", "assay": "AR HiBiT degradation assay", "format": "cell-based", "conditions": "read-out: AR DC50", "description": "Cellular BRD4/AR HiBiT assay\nThe HiBiT tagged cells were seeded at 10,000 cells per well in a 384-well plate (Thermo Scientific, 164610) at 25 µL per well in DMEM media containing 10% FBS and incubated overnight. Compounds were dispensed using D300e Digital Dispenser (HP) and normalized to 0.1% DMSO. Cells were pre-treated with Epoxomicin or MLN4924 for 3 h before treatment […]\nNano -Glo HiBiT lytic detection assay was performed as described in the manufacturer protocol (Promega). 25 µL of premixed detection reagent was added to each well of the 384 well assay plate and incubated for 15 min on an orbital shaker (at 600 RPM), and luminescence was read using a PHERAstar FS plate reader (BMG Labtech). Corresponding background RLU values were subtracted from DMSO control values and the percentage of protein (%) of were then calculated against […]\nDMSO-treated controls. […]\n1:1000 WB), Tubulin (Sigma #4967S 1:5000 WB)."}}}
{"molecule": "Cc1cc([C@H](C(=O)N2C[C@H](S(=O)(=O)F)C[C@H]2C(=O)N[C@@H](CC(=O)OC(C)(C)C)c2ccc(-c3scnc3C)cc2)C(C)C)on1", "note": "[VHL-SF2, tert-Butyl (S)-3-((2S,4R)-4-(Fluorosulfonyl)-1-((R)-3-methyl-2-(3-methylisoxazol-5-yl)butanoyl)pyrr-olidine-2-carboxamido)-3-(4-(4-methylthiazol-5-yl)phenyl)propanoate]", "values": [{"measurement": "cytotoxicity (CellTiter-Glo)", "setting": "[1]", "result": "no evidence of cytotoxicity"}, {"measurement": "DC50", "setting": "[2]", "result": "> 75", "unit": "µM"}]}
